# According to article PMC12668308, “A Novel Antimalarial Agent that Inhibits Protein Synthesis in Plasmodium falciparum” (Angewandte Chemie (International Ed. in English), 2025):
# Tests used:
# [1] = tested on: 60S ribosomal protein L7 (W7KAU4); assay: iSPP profiling, P. falciparum lysate; assay type: binding, Plasmodium falciparum
# [2] = tested on: Uncharacterized protein (W7JQ86); assay: iSPP profiling, P. falciparum lysate; assay type: binding, Plasmodium falciparum
# Procedure: (§1) P. falciparum NF54 lysates were extracted as described in ^[26^] . The parasite asynchronous culture was extracted once 3-5% parasitemia was reached. Saponin lysis was done as described in 2.2.10. Once the parasite pellet was obtained, 2.5 volumes of ice-cold lysis buffer (50 mM Tris/HCl pH 7.5 (Avantor), 5% glycerol (Sigma-Aldrich), 150 mM NaCl (Carl Roth), 1.5 mM MgCl2 (Sigma-Aldrich), 1 mM DTT (Carl Roth), 0.8% IGEPAL CA-630 (Sigma-Aldrich), 1X Halt Protease and Phosphatase Inhibitor-Cocktails EDTA-free (Thermo Fisher Scientific)) was added to the parasite pellet. The lysate solution was subjected to three cycles of flash freeze-thaw with liquid nitrogen and ddH2O at RT. The lysates were centrifuged at 20,000 g for 20 minutes at 4 °C. The soluble protein fraction (supernatant) was collected and the protein content was quantified using the BCA assay (Pierce™ BCA Protein Assay Kit, Thermo Fisher Scientific). The lysate was stored at -80 °C until further use.
# (§2) The P. falciparum lysate was thawed on ice and diluted to 0.8 mg/mL. The lysate was aliquoted, and each aliquot was incubated with either a vehicle control (DMSO), 34 (dissolved in DMSO), or varying concentrations of 31 (dissolved in DMSO) at 0.01 µM, 0.1 µM, 10 µM, 50 µM, and 100 µM. Subsequently, the samples were incubated at room temperature for 30 minutes using a rotating mixer. After distribution into a 96-well plate, the samples were treated with increasing concentrations of A.E.A. (v/v) ranging from 14% to 28% (14, 16, 18, 20, 22, 24, 26, and 28%). Following a 20-minute incubation at 37°C with shaking at 750 rpm, the samples were centrifuged at 4400 g for 35 minutes to remove precipitated proteins. The soluble fractions were then pooled in equal volumes into a single sample using the Bravo Automated Liquid Handling Platform. The pooled samples were subsequently prepared for LC-MS/MS analysis.
# (§3) The raw LFQ-DIA intensity values of biological replicates across all conditions were normalized to the median abundance using Excel. The normalized values were then log2 transformed in Perseus (v2.0.10.0).^[58^] Missing values were imputed from a normal distribution (width 0.3, down shift 1.5), and p-values were obtained using a two-sample t-test over replicates with a permutation-based false discovery rate correction (FDR 0.05). Volcano plots were generated in RStudio using the EnhancedVolcano package (v. 1.20.0), ^[59^] plotting proteins by statistical significance (y-axis: –Log10 p-value) versus the magnitude of change (x-axis: log2 fold change of protein intensities for each compound condition relative to the vehicle control). The heatmap was generated in Perseus (v2.0.10.0). Dose-dependent curves were generated using normalized protein intensity values, expressed as a ratio to the vehicle control. Plots were created in GraphPad Prism (v8.3.0) using a nonlinear regression model.
# [3] = tested on: Dd2b2^pfmdr1 K1065N; assay type: cell-based, Plasmodium falciparum; conditions: Dd2b2^pfmdr1 K1065N vs Dd2b2^WT
# Procedure: ^[a] 72-h [^3H] hypoxanthhine incorporation assay; Data is expressed as mean±s.d. The assay was performed in three independent biological experiments, each in biological duplicates
# P. falciparum asexual blood stage parasites were cultured in human red blood cells (RBC, Blutspende SRK, Zurich) at a hematocrit of 5% in RPMI 1640 medium. The RPMI 1640 medium (ThermoFisher Scientific #51800−043) was supplemented with the following: 24 mM NaHCO3 (pH 7.3, Sigma-Aldrich #31437−500G-R), 25 mM Hepes (Sigma-Aldrich #H4034−500G), 0.36 mM hypoxanthine (Sigma-Aldrich # H9377−25G), 100 µg mL^-1 neomycin (Sigma-Aldrich #N6386−100G) and 0.5% Albumax II (Thermo Fisher #11021−045). Additionally, 2 mM choline chloride (279 mg/L, Sigma-Aldrich #C7527−100G) was added to the culture to block the induction of sexual commitment as described. ^[31^] The RPMI 1640 medium and components were dissolved in water (Milli-Q purified), stirred for at least 3 h, and then sterile filtered (0.22 μm pore size) with a bottle top filter (Corning # 431118). Parasite cultures were maintained in an atmosphere of 3% O2, 4% CO2, and 93% N2 in air-tight chambers at 37 °C. The [^3H]-hypoxanthine incorporation assay was used to test compound activity in the specific parasite lines as described.^[32^] Briefly, compounds were dissolved in DMSO (10 mM) and diluted in a hypoxanthine-free culture medium. A limiting dilution was performed over a 64-fold range (6-step twofold dilution) in a 96-well plate in duplicates. For every starting concentration, a limiting dilution was performed over a 64-fold range (6-step twofold dilution) in a 96-well plate in two biological duplicates. Parasites were added at 100 µL to each well containing the compound to obtain a final parasitemia of 0.3% and haematocrit of 1.25%. The plates were incubated for 48 h before 0.25 µCi of [^3H]-hypoxanthine was added per well for an additional 24 h. Parasites were harvested on a glass-fiber filter with a Microbeta FilterMate cell harvester (Perkin Elmer, Waltham, USA) and radioactivity was counted using a MicroBeta2 liquid scintillation counter (Perkin Elmer, Waltham, US). The results were recorded, processed by subtraction of the mean background signal obtained from the uninfected RBC controls and expressed as percentage of untreated controls. The fifty percent inhibitory concentration (IC50) was calculated by using nonlinear, four parameter (variable slope) curve fitting as described ^[33^] after importing into GraphPad Prism (version 8.3.0).
# [4] = tested on: Uncharacterized protein (W7KAL3); assay: iSPP profiling, P. falciparum lysate; assay type: binding, Plasmodium falciparum; conditions: 100 µM compound 34
# Procedure: as §1, §2, §3
# [5] = tested on: Pre-mRNA-splicing factor BUD31 (W7K941); assay: iSPP profiling, P. falciparum lysate; assay type: binding, Plasmodium falciparum; conditions: 100 µM compound 34
# Procedure: as §1, §2, §3
# [6] = tested on: Dihydrolipoyl dehydrogenase (W7JVD0); assay: iSPP profiling, P. falciparum lysate; assay type: binding, Plasmodium falciparum; conditions: 100 µM compound 34
# Procedure: as §1, §2, §3
# [7] = tested on: Uncharacterized protein (W7JSC9); assay: iSPP profiling, P. falciparum lysate; assay type: binding, Plasmodium falciparum; conditions: 100 µM compound 34
# Procedure: as §1, §2, §3
# [8] = tested on: Uncharacterized protein (W7KFE6); assay: iSPP profiling, P. falciparum lysate; assay type: binding, Plasmodium falciparum; conditions: 100 µM compound 34
# Procedure: as §1, §2, §3
# [9] = tested on: Sugar phosphate phosphatase (W7K268); assay: iSPP profiling, P. falciparum lysate; assay type: binding, Plasmodium falciparum; conditions: 100 µM compound 34
# Procedure: as §1, §2, §3
# [10] = tested on: SPATR (W7KAV2); assay: iSPP profiling, P. falciparum lysate; assay type: binding, Plasmodium falciparum; conditions: 100 µM compound 34
# Procedure: as §1, §2, §3
compound,measurement,setting,value
"CN1CCN(Cc2ccc(O)c(NC(=O)c3cccc(Oc4cc(C(F)(F)F)ccn4)c3)c2)CC1 [Compound 31, N-(2-hydroxy-5-((4-methylpiperazin-1-yl)methyl)phenyl)-3-((4-(trifluoromethyl)pyridin-2-yl)oxy)benzamide]",log2FC,[1]; 10 µM,0.75
same,log2FC,[1]; 50 µM,0.94
same,log2FC,[1]; 100 µM,0.74
same,log2FC,[1]; 10^-2 µM,0.69
same,log2FC,[1]; 10^-3 µM,0.33
same,log2FC,[2]; 10 µM,0.49
same,log2FC,[2]; 50 µM,0.58
same,log2FC,[2]; 100 µM,0.37
same,log2FC,[2]; 10^-2 µM,0.40
same,log2FC,[2]; 10^-3 µM,0.28
same,IC50 fold shift relative to parental clone,[3],20.2
"O=C(Nc1cc(CN2CCOCC2)ccc1F)c1cccc(Oc2cc(C(F)(F)F)ccn2)c1 [Compound 34, N-(2-Fluoro-5-(morpholinomethyl)phenyl)-3-((4-(trifluoromethyl)pyridin-2-yl)oxy)benzamide]",log2FC,[4],-0.4853
same,log2FC,[5],0.5199
same,log2FC,[6],0.3119
same,log2FC,[7],0.457
same,log2FC,[8],0.3535
same,log2FC,[9],-0.3813
same,log2FC,[10],0.3835
